Measurements from ChEMBL document CHEMBL5154707, “Synthesis and biological evaluation of novel hybrids of phenylsulfonyl furoxan and phenstatin derivatives as potent anti-tumor agents” (Eur J Med Chem, 2022).
Active and inactive are the calls of the source. The calls are words filed in the database; no cut-off is given here.

Tests used:
[1] = test system: A2780; experiment: cells; conditions: Homo sapiens, A2780, 48 h
Description: Antiproliferative activity against human A2780 cells after 48 hrs by MTT assay

[2] = test system: A549; experiment: cells; conditions: Homo sapiens, A549, 48 h
[3] = test system: MDA-MB-231; experiment: cells; conditions: Homo sapiens, MDA-MB-231, 48 h
Description: Antiproliferative activity against human MDA-MB-231 cells after 48 hrs by MTT assay

[4] = test system: HCT-116; experiment: Antiproliferative activity against human HCT-116 cells after 48 hrs by MTT assay; conditions: HCT-116, 48 h
[5] = target: Tubulin (Sus scrofa, UniProt P02554+P02550); experiment: Inhibition of pig brain tubulin polymerization
[6] = target: T1, Tubulin (Homo sapiens) (UniProt P68371+Q9H4B7+P0DPH7+P68366+Q13509+Q71U36+P04350+Q3ZCM7+P07437+P68363+Q9BQE3+Q6PEY2+Q13885+Q9BVA1+Q9BUF5); experiment: Inhibition of tubulin polymerization in A549 cells assessed as disruption of microtubule network at 10 to 20 nM measured by immunofluorescence assay; assay type: cell-based; conditions: dose 10-20 nM
[7] = target: T1, Tubulin (Homo sapiens); experiment: Inhibition of tubulin polymerization in A549 cells assessed as disruption of microtubule network at 20 nM measured by immunofluorescence assay; assay type: cell-based
[8] = Cytotoxicity against human HOSE cells after 48 hrs by MTT assay; assay type: toxicity, cell-based
[9] = Resistant factor, ratio of IC50 for antiproliferative activity against human A2780 cisR cells to IC50 for human A2780 cells; assay type: functional
[10] = Antiproliferative activity against human A2780/PTX cells after 48 hrs by MTT assay
[11] = test system: A2780; experiment: Induction of nitric oxide release in human A2780 cells measured by Griess reagent based assay; assay type: functional, cell-based
[12] = Resistant factor, ratio of IC50 for antiproliferative activity against human A2780/PTX cells to IC50 for human A2780 cells; assay type: functional
[13] = test system: A2780cisR; experiment: Antiproliferative activity against human A2780 cisR cells after 48 hrs by MTT assay; assay type: functional, cell-based

IC50 [1] | IC50 [2] | IC50 [3] | IC50 [4] | Compound | also measured
> 20000 nM | > 20000 nM | > 20000 nM | > 20000 nM | COc1ccc(C(=O)c2ccc(F)cc2)cc1O | –
– | – | – | – | COc1cc(OCCOc2no[n+]([O-])c2S(=O)(=O)c2ccccc2)cc(C(=O)c2ccc(Br)cc2)c1 | IC50 [5]: 1600 nM; inhibition [6]: Active; inhibition [7]: Active
1160 nM | 224000 nM | 2110 nM | 3650 nM | COc1ccc(C(=O)c2ccc(Br)cc2)cc1O | –
120 nM | 21000 nM | 51 nM | 170 nM | COc1ccc(C(=O)c2cc(OC)c(OC)c(OC)c2)cc1O [PHENSTATIN] | IC50 at 48 h [8]: 160 nM; Ratio IC50 [9]: 23.8; IC50 [10]: 9350 nM; Activity [11]: Active; Ratio IC50 [12]: 77.9; IC50 [13]: 2850 nM
– | – | – | – | CC(=O)O[C@H]1C(=O)[C@@]2(C)[C@H]([C@H](OC(=O)c3ccccc3)[C@]3(O)C[C@H](OC(=O)[C@H](O)[C@@H](NC(=O)c4ccccc4)c4ccccc4)C(C)=C1C3(C)C)[C@]1(OC(C)=O)CO[C@@H]1C[C@@H]2O [PACLITAXEL] | IC50 at 48 h [8]: 18 nM
170 nM | 34000 nM | 120 nM | 124000 nM | COc1ccc(C(=O)c2ccc3ccccc3c2)cc1O | –
3690 nM | 6640 nM | 4180 nM | 2650 nM | COc1ccc(C(=O)c2ccc(Cl)cc2)cc1O | –
– | 235000 nM | 1870 nM | 2680 nM | O=S(=O)(c1ccccc1)c1no[n+]([O-])c1S(=O)(=O)c1ccccc1 | Activity [11]: Active

Compound | IC50 [1] | IC50 [2] | IC50 [3] | IC50 [4] | also measured
COc1ccc(/C=C\c2cc(OC)c(OC)c(OC)c2)cc1O [COMBRETASTATIN A4] | – | 6 nM | 12 nM | – | –
